Assays:
Rattus norvegicus [1] = species: Rattus norvegicus; experiment: Percent of intrinsic activity for vasorelaxant effect; type: functional
Rattus norvegicus [2] = species: Rattus norvegicus; experiment: Negative logarithm of the molar concentration required to relax rat aorta precontracted with 30 mM KCl by 50% of IA; type: functional

Structure (SMILES) | IA (Rattus norvegicus [1]) [%] | EC50 (Rattus norvegicus [2]) [µM]
C/N=C(/S)C1=CC(C)(C)Oc2ccc(Cl)cc21 | 73.1 | 0.0372
C/N=C(/S)C1=CC(C)(C)Oc2ccc(C(F)(F)C(F)(F)F)cc21 | 55.4 | 0.0126
C/N=C(/S)C1=CC(C)(C)Oc2ccc([N+](=O)[O-])cc21 | 63.5 | 0.00135
C/N=C(/S)C1=CC(C)(C)Oc2ccc(S(C)(=O)=O)cc21 | 69.8 | 0.457
CCc1ccc2c(c1)C(/C(S)=N\C)=CC(C)(C)O2 | 78.7 | 0.324
C/N=C(/S)C1=CC(C)(C)Oc2ccccc21 | 89.3 | 4.27
C/N=C(/S)C1=CC(C)(C)Oc2ccc(OC(F)(F)F)cc21 | 76.1 | 0.00407
C/N=C(/S)C1=CC(C)(C)Oc2ccc(Br)cc21 | 67.5 | 0.00933
C/N=C(/S)C1=CC(C)(C)Oc2ccc(C#N)cc21 | 89 | 0.0245
C/N=C(/S)C1=CC(C)(C)Oc2ccc(C(F)(F)F)cc21 | 73 | 0.00204
C/N=C(/S)C1=CC(C)(C)Oc2ccc(S(=O)(=O)c3ccccc3)cc21 | 73.7 | 0.0191
C/N=C(/S)C1=CC(C)(C)Oc2ccc(OC(C)=O)cc21 | 76.1 | 0.0955
CNC(=S)C1=CC(C)(C)Oc2ccc(OC)cc21 | 61.5 | 0.417
CC1(C)Oc2ccc(C#N)cc2[C@@H](N2CCCC2=O)[C@@H]1O [CROMAKALIM] | 74.7 | 0.17
